This is an account of results in patent US7368100B2, “Backbone-substituted bifunctional DOTA ligands, complexes and compositions thereof, and methods of using same” (The United States of America, represented by the Secretary, …, priority 2002, dated 2008).

For data set [1], the system named is human colon carcinoma (LS-174T) xenografts. To be noted: mouse, in vivo.
Experimental: The radioimmunoconjugates (RICs) were compared in vivo using athymic mice bearing human colon adenocarcinoma xenografts. Female athymic mice (nu/nu), obtained from Charles River Laboratories (Wilmington, Mass.) at 4-6 weeks of age, were injected subcutaneously on the flank with 2×10^6 LS-174T cells in 0.2 mL of RPMI-1640. At approximately 10-14 days, when the tumors measured between 0.4-0.6 cm in diameter, the mice received the ^177Lu-labeled HERCEPTIN. The mice were injected with each RIC (about 5 μCi of each) intravenously (i.v.) via the tail vein. Mice (n=5) were sacrificed by exsanguination at 24, 48, 72, 96 and 168 h.
Blood, tumor and the major organs were collected and wet-weighed, and the radioactivity was counted in a γ-counter (Minaxi-γ, Packard, Downers Grove, Ill.). The percent injected dose per gram (% ID/g) was determined for each tissue as well as the radiolocalization indices (% ID/g in tumor divided by the % ID/g in the normal tissue). The mean and average deviation for each tissue was also calculated.
Following injection of the radioimmunoconjugates (n=5), blood samples were collected at various time points via the tail vein in heparinized capillary tubes (10 μL). The blood was transferred to a tube, and the radioactivity was measured in a γ-counter. The percent injected dose per mL of blood was calculated for each of the samples.
If the radioactivity in the tissues is due to specific accumulation, then the tissue-to-blood ratio would increase as a function of time. If the radioactivity in the tissues is a result of that radioactivity present in the plasma compartment, then the tissue-to-blood ratio would remain constant with time.
The subject of data set [2] is HER2 positive cells (N87). The data set is described as follows: Live-cell radioimmunoassay (immunoreactivity) of radiolabeled HERCEPTIN preparations. In kind it is binding, human. To be noted: for HER2 + (percent binding): N87 cells, overnight 4° C., average of the serial dilutions; for HER2 − (percent binding): column HER2 −, not explained, text describes incubation with excess (10 μg) unlabeled HERCEPTIN
Here is the method: The human colon carcinoma (LS-174T) cell line was grown in supplemented Eagle's minimum essential medium as previously described (see Brechbiel et al., Inorg Chem., 25, 2772 (1986); and Lagunas-Solar et al., Appl. Radiat. Isot., 38, 129-137 (1987)). The human gastric carcinoma cell line (N87) was kindly provided by Dr. Raya Mandler, Metabolism Branch, NCI. The N87 cell line (Jurcic et al., Advances in Pharmacology, Vol. 33, (J. T. August, M. W. Anders, F. Murad, J. T. Coyle Eds.) pp 287-314, Academic Press, Inc., New York, (1995)), which expresses high levels of HER2, was maintained in RPMI 1640 (Quality Biologicals, Gaithersburg, Md.) medium, supplemented with 10% fetal bovine serum (FBS) (Gemini Bio-Products, Woodland, Calif.) and 0.01 mM non-essential amino acids (Quality Biologicals, Gaithersburg, Md.).
The immunoreactivity of the RIC was assessed in a live-cell radioimmunoassay (RIA) as detailed elsewhere (Garmestani et al., Nuci. Med. Biol., 29, 599-606 (2002)). HER2 positive cells (N87) were harvested, pelleted at 1,000×g (Allegra 6KR; Beckman Coulter, Palo Alto, Calif.) and resuspended in PBS (pH 7.2) containing 1% BSA and were added to 12×75 […] polypropylene tubes (1×10^6 cells in 100 μL). Serial dilutions of the radiolabeled HERCEPTIN preparations (about 200,000 cpm -12,500 cpm in 50 μL) were then added in duplicate and gently shaken. Following an overnight incubation at 4° C., the cells were washed once with 4 mL of 1% BSA in PBS and pelleted at 1,000×g for 5 min, and the supernatant was decanted. The pelleted cells were then counted in a γ-scintillation counter (Packard), and the percent binding was calculated for each dilution. The values presented in Table 1 are an average of the serial dilutions. To confirm the specific reactivity of the RIC, cells were incubated with about 200,000 cpm of the RIC along with an excess (10 μg) of unlabeled HERCEPTIN.

The test system of another data set is leukemia cell line. To be noted: directed against a leukemia cell line; Nikula et al. 1999; cited from earlier work.

CHX-DOTA (14): in data set [1], the “femur-to-blood ratios, course over time” value was “higher overall than the other RIC” and the spleen-to-blood ratios result is “less than 1”. Also, in data set [2], the “HER2 + (percent binding)” value came out at 45.8% and the “HER2 − (percent binding)” value was determined as 4.3%.

Turning to 1B4M-DOTA (7), in data set [1], the “liver % ID/g, comparison among RIC” value is recorded as “lowest liver % ID/g values throughout the entire study period” and the spleen-to-blood ratios result is given as “less than 1”. In data set [2], the “HER2 + (percent binding)” value worked out at 47.2% and the “HER2 − (percent binding)” value is 6.7%.

As to Bismuth-labeled HuM195, in the data set on leukemia cell line, the cell killing ability result was “specific and potent cell killing ability”.
